How the values were obtained:
Type in all cases: biochemical
HSL = target: T1, HSL (Mus musculus, UniProt P54310); experiment: TG hydrolase activity assay, cytosolic fractions of HepG2 cells infected with adenovirus coding for His-tagged HSL, radiolabeled triolein substrate; conditions: 1M KCl vs absence (control), FIG. 5
T1 construct: His-tag; expressed in transfected cells; host or cells: HepG2 cells infected with recombinant adenovirus; cytosolic fraction
T1 sequence (P54310 1-759): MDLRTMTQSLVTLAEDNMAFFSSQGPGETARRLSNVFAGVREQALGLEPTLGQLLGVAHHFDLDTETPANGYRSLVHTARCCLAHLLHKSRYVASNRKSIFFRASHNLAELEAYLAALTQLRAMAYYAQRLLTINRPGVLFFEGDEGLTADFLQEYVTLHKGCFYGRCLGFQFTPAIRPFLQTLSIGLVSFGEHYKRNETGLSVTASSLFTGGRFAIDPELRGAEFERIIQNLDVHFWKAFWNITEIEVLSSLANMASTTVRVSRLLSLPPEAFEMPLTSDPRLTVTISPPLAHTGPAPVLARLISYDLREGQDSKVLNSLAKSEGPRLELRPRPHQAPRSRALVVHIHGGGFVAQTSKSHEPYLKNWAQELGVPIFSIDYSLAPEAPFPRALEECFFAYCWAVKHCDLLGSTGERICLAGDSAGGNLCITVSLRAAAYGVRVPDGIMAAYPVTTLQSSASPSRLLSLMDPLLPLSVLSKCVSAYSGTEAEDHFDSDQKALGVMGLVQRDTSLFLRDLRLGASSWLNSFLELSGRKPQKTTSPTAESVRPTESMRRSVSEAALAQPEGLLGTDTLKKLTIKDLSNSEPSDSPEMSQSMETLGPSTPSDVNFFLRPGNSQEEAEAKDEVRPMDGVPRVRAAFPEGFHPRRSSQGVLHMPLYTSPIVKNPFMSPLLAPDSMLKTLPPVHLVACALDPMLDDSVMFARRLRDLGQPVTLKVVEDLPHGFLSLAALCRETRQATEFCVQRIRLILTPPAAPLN
Experimental: (§1) Neutral TG lipase activity was measured with triolein as substrate containing [9,10-3H(N)]-triolein (NEN Life Science Products) as radioactive tracer. The substrate for TG lipase activity was prepared by sonication (Virsonic 475) exactly as describeded by Holm et al. (30). Cells were disrupted on ice in lysis buffer (0.25 M sucrose, 1 mM EDTA, 1 mM dithiothreitol, 20 μg/ml leupeptin, 2 μg/ml antipain, 1 μg/ml pepstatin, pH 7) by sonication (Virsonic 475). The cytosolic infranatants were obtained after centrifugation at […], at 4° C. for 60 min. The reaction was performed in a water bath at 37° C. for 60 min with 0.1 ml substrate and 0.1 ml infranatant. The reaction was terminated by adding 3.25 ml of methanol/chloroform/heptane (10:9:7) and 1 ml of 0.1 M potassium carbonate, 0.1 M boric acid, pH 10.5. After centrifugation (800 g, 20 min) the radioactivity in 1 ml of the upper phase was determined by liquid scintillation counting.
A recombinant adenovirus coding for His-tagged ATGL or HSL was used to infect HepG2 cells. The infection led to a 7- and 12-fold increase in TG hydrolase activity for HSL and ATGL, respectively, compared to LacZ-infected cells. For activity assays, the cytosolic fractions of the cells were incubated with a substrate containing radiolabeled triolein in the absence (control) or in the presence of the indicated salt concentrations.

ATGL = target: T2, ATGL (Mus musculus, UniProt Q8BJ56); experiment: TG hydrolase activity assay, cytosolic fractions of HepG2 cells infected with adenovirus coding for His-tagged ATGL, radiolabeled triolein substrate
T2 construct: a recombinant adenovirus encoding the His-tagged full length mouse ATGL cDNA was constructed; expressed in transfected cells; host or cells: HepG2 cells infected with recombinant adenovirus; cytosolic fraction
T2 sequence (Q8BJ56 1-486): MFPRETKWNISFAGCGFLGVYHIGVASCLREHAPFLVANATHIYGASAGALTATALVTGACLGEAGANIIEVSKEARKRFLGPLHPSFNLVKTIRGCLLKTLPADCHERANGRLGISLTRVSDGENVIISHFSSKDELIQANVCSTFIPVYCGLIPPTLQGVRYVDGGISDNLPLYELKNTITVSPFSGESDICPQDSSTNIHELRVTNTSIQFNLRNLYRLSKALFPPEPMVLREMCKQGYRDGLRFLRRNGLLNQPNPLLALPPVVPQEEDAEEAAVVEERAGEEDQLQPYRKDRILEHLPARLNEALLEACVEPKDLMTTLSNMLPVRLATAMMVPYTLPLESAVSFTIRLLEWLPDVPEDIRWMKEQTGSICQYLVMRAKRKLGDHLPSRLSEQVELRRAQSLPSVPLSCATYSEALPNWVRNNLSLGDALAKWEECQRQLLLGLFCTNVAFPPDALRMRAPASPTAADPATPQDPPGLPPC
Experimental: as §1
A recombinant adenovirus coding for His-tagged ATGL or HSL was used to infect HepG2 cells as described above. For activity assays, the cytosolic fractions of the cells were incubated with a substrate containing radiolabeled triolein in the absence (control) or in the presence of 50 μg/ml orlistat. It can be seen from FIG. 4 that addition of orlistat decreased in ATGL activity by 98%. […]

human ATGL (hATGL) = target: T3, human ATGL (hATGL) (Homo sapiens, UniProt Q96AD5); experiment: TGH activity assay of hATGL with hCGI-58 expressed in COS-7 cells; conditions: human proteins; dose-dependent; FIG. 6f
T3 construct: The PCR products, containing the complete open reading frame, were ligated; expressed in transfected cells; host or cells: COS-7, transient transfection; cytoplasmic extracts
T3 sequence (Q96AD5 2-504): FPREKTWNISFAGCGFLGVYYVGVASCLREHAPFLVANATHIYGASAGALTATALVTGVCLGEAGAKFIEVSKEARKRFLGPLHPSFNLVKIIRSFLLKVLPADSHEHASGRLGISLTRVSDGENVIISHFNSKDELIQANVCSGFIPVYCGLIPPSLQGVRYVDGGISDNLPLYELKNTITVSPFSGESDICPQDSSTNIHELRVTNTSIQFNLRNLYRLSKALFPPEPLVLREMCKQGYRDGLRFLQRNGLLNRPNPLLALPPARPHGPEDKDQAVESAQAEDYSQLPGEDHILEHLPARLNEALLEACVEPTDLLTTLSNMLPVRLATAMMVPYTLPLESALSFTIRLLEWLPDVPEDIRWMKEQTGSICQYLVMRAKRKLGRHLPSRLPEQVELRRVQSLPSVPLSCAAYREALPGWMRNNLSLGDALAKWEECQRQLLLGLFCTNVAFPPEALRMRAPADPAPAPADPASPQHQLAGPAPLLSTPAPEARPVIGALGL
T3 sequence (Q8WTS1 1-349 partner): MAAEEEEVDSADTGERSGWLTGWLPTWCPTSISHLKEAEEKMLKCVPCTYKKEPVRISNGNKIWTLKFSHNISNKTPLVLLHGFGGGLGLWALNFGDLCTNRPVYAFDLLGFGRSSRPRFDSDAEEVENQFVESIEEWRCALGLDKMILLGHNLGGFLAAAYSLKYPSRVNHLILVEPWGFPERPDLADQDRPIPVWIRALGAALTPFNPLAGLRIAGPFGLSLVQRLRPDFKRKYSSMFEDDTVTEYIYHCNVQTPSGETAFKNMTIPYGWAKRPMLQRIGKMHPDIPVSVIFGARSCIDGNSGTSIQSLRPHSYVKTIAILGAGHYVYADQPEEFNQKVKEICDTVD
Description: In comparison, transfection of cells with ATGL and HSL increased TGH activities 4- and 9-fold, respectively. In order to investigate whether the effect of CGI-58 is due to endogenous TGH activity of CGI-58 or if the protein affects the activity of other lipases, the extracts of CGI-58 and ATGL or HSL-expressing cells were mixed together and subjected to TGH activity determinations (FIG. 6c). […] The activation of ATGL by CGI-58 could also be monitored on the molecular level using the fluorescently labeled lipase-inhibitor NBD-snl TG. By mimicking a TG molecule, this inhibitor covalently binds to active lipases. […]
Expression ofrecombinant proteins in cultured cells for CGI-58 investigations—Monkey embryonic kidney cells (COS-7, ATCC CRL-1651) were maintained in Dulbecco's minimal essential medium (DMEM) (Gibco, Invitrogen life technologies, Carlsbad, Calif.) containing 10% fetal calf serum (FCS) (Sigma-Aldrich Chemie GmbH) and antibiotics at 37° C. in humidified air (89-91% saturation) and 5% C02. […] Cells were analyzed two days after transfection.
FIG. 6. […] (a) His-tagged proteins were detected in cytoplasmic extracts of transfected cells by Western blotting using a monoclonal anti-His antibody. (b) TGH activity of cytoplasmic extracts of transfected cells was determined using a radiolabeled triolein substrate. […] The molar ratio ATGL/CGI-58 was determined as described in (d).

Molecule: [Cl-].[K+] [KCl, potassium chloride]
- change in HSL activity (HSL): −68%
- change in ATGL activity (stimulated) (ATGL; 1M KCl vs absence (control), FIG. 5): +84%

Molecule: CCCCCCCCCCC[C@@H](C[C@@H]1OC(=O)[C@H]1CCCCCC)OC(=O)[C@H](CC(C)C)NC=O [orlistat]
- decrease in ATGL activity (ATGL; 50 μg/ml orlistat vs absence (control), FIG. 4): 98%

B1: hCGI-58: human CGI-58 expressed in COS-7 cells (protein, UniProt Q8WTS1 2-349, looked up)
1-acylglycerol-3-phosphate …: AAEEEEVDSADTGERSGWLTGWLPTWCPTSISHLKEAEEKMLKCVPCTYKKEPVRISNGNKIWTLKFSHNISNKTPLVLLHGFGGGLGLWALNFGDLCTNRPVYAFDLLGFGRSSRPRFDSDAEEVENQFVESIEEWRCALGLDKMILLGHNLGGFLAAAYSLKYPSRVNHLILVEPWGFPERPDLADQDRPIPVWIRALGAALTPFNPLAGLRIAGPFGLSLVQRLRPDFKRKYSSMFEDDTVTEYIYHCNVQTPSGETAFKNMTIPYGWAKRPMLQRIGKMHPDIPVSVIFGARSCIDGNSGTSIQSLRPHSYVKTIAILGAGHYVYADQPEEFNQKVKEICDTVD
- magnitude of the maximal effect on ATGL activation (human ATGL (hATGL)): 6 fold

Reference: patent US20120009613A1, “PHARMACEUTICAL COMPOSITION FOR MODULATING THE ACTIVITY OF A NOVEL TRIGLYCERIDE HYDROLASE” (Karl-Franzens-Universitat Graz, priority 2004, published 2012)
